SMILES strings stand for the structures.

In one data set the test system is U-87 MG cells. Format: binding, human. As to conditions: 4 h. How it is done: As the concentration of unlabeled DOTA-EB-cRGDfK or DOTA-cRGDfK increased, the binding ratio of ^111In-DOTA-EB-cRGDfK decreased, indicating the presence of specific binding affinity (Figure 2C).
U-87 MG cells were seeded into 24-well plates at a density of 1 × 10^5 cells per well and incubated overnight. Different concentrations ranging from 0.01 nM to 5000 nM of DOTA-EB-cRGDfK or DOTA-cRGDfK were added to the wells. U-87 MG cells were then incubated with 10 nM ^111In-DOTA-EB-cRGDfK for 4 h at 37 °C. Cells were washed once with 0.5 mL PBS and were removed from each well by 0.25% trypsin-EDTA (Gibco, Gaithersburg, MD, USA). The cell suspensions were collected and measured by using a PerkinElmer 2480 Automatic Gamma Counter (PerkinElmer, Waltham, MA, USA). Binding results were expressed as a percent of total counts, and IC50 values were calculated using SigmaPlot 12.5 (Systat Software, Inc., San Jose, CA, USA).

A further data set deals with tumor. The arrangement: method as in PMID 25621196. The note with it: cited from earlier work.
Data set [1] in a line: NanoSPECT/CT imaging with image quantification. Format: in vivo. As to conditions: female, NOD/SCID, mouse, tumor, iv, 2.5 ug, total radioactivity; 0.5 h after tail-vein injection (about 18.5 MBq, 2.5 μg); U-87 MG xenografts in mice; nanoSPECT/CT ROI. How it is done: Figure 3 presented nanoSPECT/CT images of U-87 MG xenografts in mice administered with different radiolabeled peptides. […] Comparing with ^111In-DOTA-EB-cRGDfK, the highest tumor uptake of ^111In-DOTA-cRGDfK was 2.0 ± 0.5% ID/g at 0.5 h. […] The ratios of tumor to muscle and tumor to liver were 1.8 ± 0.7 and 0.5 ± 0.1 at 0.5 h, respectively. The highest tumor uptake of ^111In-DOTA-EB was 10.3 ± 4.4% ID/g at 24 h, and it slightly dropped to 9.97 ± 4.37% ID/g at 72 h.
The human glioblastoma cell line, U-87 MG (stock number: BCRC 60360), was obtained from Bioresource Collection and Research Center. Cells were grown in Minimum Essential Medium (MEM; Gibco, Grand Island, NY, USA) supplemented with 10% (v/v) fetal bovine serum (FBS; Gibco, Gaithersburg, MD, USA) and 1% antibiotic antimycotic solution (Sigma-Aldrich, St. Louis, MO, USA) at 37 °C under 5% CO2 incubation. Female non-obese diabetic, severe combined immunodeficiency (NOD/SCID) mice were obtained from BioLASCO Taiwan Co., Ltd. The 6-week-old mice were housed in a 12 h light cycle at 22 °C, with food and water provided ad libitum. […]
The procedure for nanoSPECT/CT imaging has been previously described. […] The image quantification of the region of interest (ROI) was acquired by PMOD v. […]

For data set [2] the following is noted: mouse, in vivo, iv.
Method: Blood samples (10 μL) were collected by heart puncture under 2% isoflurane anesthesia at 0.083, 0.5, 2, 4, 24, 48, 72, 96, and 168 h. The radioactivity of blood samples was measured by PerkinElmer 2480 gamma counter and expressed as the percentage injected dose per gram (% ID/g). Data was used to determine the pharmacokinetic parameters by noncompartmental analysis (NCA) and the analysis software was WinNonlin 7.0 (Pharsight Corporation, Mountain View, CA, USA). Parameters, including terminal half-life (T1/2λz), maximum concentration (Cmax), total body clearance (Cl), area under curve (AUC), and mean residence time (MRT) were determined. Pharmacokinetic parameters associated with the terminal phase were calculated using the best-fit method to estimate the terminal half-life.

`N=C(N)NCCC[C@@H]1NC(=O)[C@H](CCCCNC(=O)CN2CCN(CC(=O)O)CCN(CC(=O)O)CCN(CC(=O)O)CC2)NC(=O)[C@@H](Cc2ccccc2)NC(=O)[C@H](CC(=O)O)NC(=O)CNC1=O` [DOTA-cRGDfK] returned an IC50 in the data set with U-87 MG cells of 35.2 nM.
For the compound `N[C@@H](Cc1ccc(B(O)O)cc1[18F])C(=O)O` [^18F-BPA], the Tumor uptake in the data set on tumor is 1.44 ± 0.44 % ID/g.
For `N=C(N)NCCC[C@@H]1NC(=O)[C@H](CCCCNC(=O)CN2CCN(CC(=O)O)CCN(CC(=O)O)CCN(CC(=O)O)CC2)NC(=O)[C@@H](Cc2ccccc2)NC(=O)[C@H](CC(=O)O)NC(=O)CNC1=O` [^111In-DOTA-cRGDfK, metal not drawn], in data set [1], the tissue uptake at 0.5 h was 2 ± 0.5 %ID/g. Moreover, in data set [2], the “Cl (total body clearance)” value is on record as 12.9 mL/h, the “Maximum concentration (Cmax) in blood” value came out at 3.74 % ID/g and the “T1/2λz (terminal half-life)” value is reported as 17.2 h.
